Experimental data from the supplement of paper PMC10307832.

Experiments:
Assay in all cases: relative viability (nuclei count vs DMSO), 5 days (fraction); higher = more cells survive
VE-821 + Tozasertib = compound: CS(=O)(=O)c1ccc(-c2cnc(N)c(C(=O)Nc3ccccc3)n2)cc1 [VE-821] + Cc1cc(Nc2cc(N3CCN(C)CC3)nc(Sc3ccc(NC(=O)C4CC4)cc3)n2)n[nH]1 [Tozasertib] (partner 0.1 µM)
In short: (§1)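 Relative viability equals treated-well nuclei counts divided by vehicle-well nuclei counts. Counts came from 4× images of lung cancer cell lines grown in 1536-well plates for 5 days after pin-tool dosing on the day after seeding. Dosing used one drug alone or a fixed anchor-drug dose plus five library-drug doses (not always all listed) in √10 steps, and values are medians of duplicate plates.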

Ruxolitinib + Foretinib = compound: N#CC[C@H](C1CCCC1)n1cc(-c2ncnc3[nH]ccc23)cn1 [Ruxolitinib] + COc1cc2c(Oc3ccc(NC(=O)C4(C(=O)Nc5ccc(F)cc5)CC4)cc3F)ccnc2cc1OCCCN1CCOCC1 [Foretinib] (partner 0.25 µM)
In short: as §1

VE-821 + Foretinib = compound: CS(=O)(=O)c1ccc(-c2cnc(N)c(C(=O)Nc3ccccc3)n2)cc1 [VE-821] + COc1cc2c(Oc3ccc(NC(=O)C4(C(=O)Nc5ccc(F)cc5)CC4)cc3F)ccnc2cc1OCCCN1CCOCC1 [Foretinib] (partner 0.25 µM)
In short: as §1

VE-821 + Trametinib = compound: CS(=O)(=O)c1ccc(-c2cnc(N)c(C(=O)Nc3ccccc3)n2)cc1 [VE-821] + CC(=O)Nc1cccc(-n2c(=O)n(C3CC3)c(=O)c3c(Nc4ccc(I)cc4F)n(C)c(=O)c(C)c32)c1 [Trametinib] (partner 0.02 µM)
In short: as §1

Row | Cell Line | relative viability (VE-821 + Tozasertib; first compound 0.08 µM) | relative viability (VE-821 + Tozasertib; first compound 0.253 µM) | relative viability (VE-821 + Tozasertib; first compound 0.8 µM) | relative viability (VE-821 + Tozasertib; first compound 2.53 µM) | relative viability (VE-821 + Tozasertib; first compound 8 µM) | relative viability (Ruxolitinib + Foretinib; first compound 0.08 µM) | relative viability (Ruxolitinib + Foretinib; first compound 0.253 µM) | relative viability (Ruxolitinib + Foretinib; first compound 0.8 µM) | relative viability (Ruxolitinib + Foretinib; first compound 2.53 µM) | relative viability (Ruxolitinib + Foretinib; first compound 8 µM) | relative viability (VE-821 + Foretinib; first compound 0.08 µM) | relative viability (VE-821 + Foretinib; first compound 0.253 µM) | relative viability (VE-821 + Foretinib; first compound 0.8 µM) | relative viability (VE-821 + Foretinib; first compound 2.53 µM) | relative viability (VE-821 + Foretinib; first compound 8 µM) | relative viability (VE-821 + Trametinib; first compound 0.08 µM) | relative viability (VE-821 + Trametinib; first compound 0.253 µM) | relative viability (VE-821 + Trametinib; first compound 0.8 µM) | relative viability (VE-821 + Trametinib; first compound 2.53 µM) | relative viability (VE-821 + Trametinib; first compound 8 µM)
1 | SK-MES-1 | 0.968 | 0.818 | 0.828 | 0.561 | 0.325 | 0.927 | 0.714 | 0.955 | 0.788 | 0.768 | 0.99 | 0.989 | 0.655 | 1.02 | 0.89 | 0.609 | 0.516 | 0.462 | 0.471 | 0.455
2 | HCC-827 | 0.427 | 0.424 | 0.391 | 0.394 | 0.372 |  | 0.764 | 0.755 | 0.918 | 0.811 | 1.13 | 0.956 | 1.02 | 1.05 | 0.827 | 0.613 | 0.524 | 0.565 | 0.52 | 0.499
3 | NCI-H596 | 0.916 | 0.82 | 0.798 | 0.954 | 0.774 | 0.907 | 0.848 | 0.888 | 0.947 | 0.804 | 0.867 | 0.617 | 0.928 | 0.905 | 0.607 | 0.78 | 0.802 | 0.752 | 0.798 | 0.594
4 | COR-L23 | 0.195 | 0.168 | 0.131 | 0.142 | 0.14 | 0.944 | 0.988 | 1.07 | 1 | 0.772 | 1.09 | 0.974 | 0.915 | 1.27 | 0.917 | 0.658 | 0.658 | 0.587 | 0.759 | 0.535
